Legend:
[1] = molecular target: T1, IDH1^R132H homodimer enzyme (Homo sapiens, UniProt O75874, R132H); test: NADPH depletion assay, IDH1 R132H; format: biochemical
T1 construct: purchased not specified
How it was run: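 IDH1 R132H enzyme (8 nM as diluted) in Tris-HCl pH 7.6 with 10 mM MgCl2, 0.001% Triton X-100 and 4 mM β-mercaptoethanol is preincubated 15 min at RT with compound. Substrate mix (12 uM NADPH, 3.4 mM α-ketoglutarate) is added for 60 min; remaining NAD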

[2] = molecular target: T2, IDH1^R132C (Homo sapiens, UniProt O75874, R132C); test: NADPH depletion assay, IDH1 R132C; format: biochemical
T2 construct: purchased not specified
How it was run: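 IDH1 R132C (2 nM) preincubated 15 min at RT with compound in Tris-HCl pH 7.6/MgCl2 buffer, then 60 min RT with NADPH and 0.14 mM alpha-ketoglutarate. Remaining NADPH read by diaphorase/resazurin fluorescence (Ex544/Em590).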

[3] = molecular target: T3, IDH2^R172K (Homo sapiens, UniProt P48735, R172K); test: NADPH depletion assay, IDH2 R172K; format: biochemical
T3 construct: purchased not specified
T3 sequence (P48735 40-452 R172K): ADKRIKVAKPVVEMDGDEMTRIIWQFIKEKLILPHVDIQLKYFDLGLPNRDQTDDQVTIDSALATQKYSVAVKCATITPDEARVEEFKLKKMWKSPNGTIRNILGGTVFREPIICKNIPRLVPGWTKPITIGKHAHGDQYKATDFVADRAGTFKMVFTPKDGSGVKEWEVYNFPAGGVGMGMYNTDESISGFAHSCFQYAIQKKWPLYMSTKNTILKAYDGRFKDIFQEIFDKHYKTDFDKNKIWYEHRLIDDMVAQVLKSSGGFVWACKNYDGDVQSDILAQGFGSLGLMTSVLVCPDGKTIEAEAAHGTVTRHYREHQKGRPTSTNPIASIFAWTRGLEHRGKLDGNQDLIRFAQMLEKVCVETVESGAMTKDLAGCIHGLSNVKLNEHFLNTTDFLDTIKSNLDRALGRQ
How it was run: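 IDH2 R172K (16 nM) was preincubated 15 min at RT with compound (1:3 series from 1 mM in DMSO) in Tris pH 7.6/NaCl/MgCl2/Triton/β-mercaptoethanol. The reaction ran 60 min at RT with 0.55 mM alpha-ketoglutarate and NADPH (12 μM in the substrate mix). Remaining NADPH was read with diaphorase/resazurin fluorescence at Ex544/Em590.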

[4] = molecular target: T4, IDH1WT enzyme (Homo sapiens, UniProt O75874); test: Enzymatic assay for IDH1 wild-type (NADPH forming assay); format: biochemical
T4 construct: purchased not specified
Experimental: IDH1WT enzymatic activity converting isocitric acid to alpha-ketoglutarate is measured using a NADPH forming assay. In the assay the forming cofactor is measured in continuous with the addition of a catalytic excess of diaphorase and resazurin, to generate a fluorescent signal in proportion to the amount of NADPH forming.
Compounds were preincubated with the enzyme, then the reaction was started by the addition of NADP^+, isocitrate, diaphorase and a corresponding substrate, resazurin. Diaphorase reduces resazurin to the highly fluorescent resorufin with the concomitant oxidation of NADPH to NADP. Specifically, 0.2 uL of test compound, previously serially diluted 1 to 3, 10 experimental points from 1 mM in DMSO, was added to 0.016 nM IDH1WT enzyme in 10 μL of Assay Buffer (150 mM NaCl, 50 mM Tris-HCl pH 7.6, 10 mM MgCl2, 0.001% Triton X-100, 4 mM β-mercaptoethanol); the mixture is incubated for 15 minutes at room temperature. The reaction is started with the addition of 10 μL of Substrate Mix (400 μM NADP^+, 40 μM iso-citrate, 5 ugr/mL Diaphorase and 7 μM resazurin in Assay Buffer), the mixture is incubated at room temperature and the reaction is reading on a ViewLux as platereader at Ex544/Em590 in continuous.

[5] = test system: HT-1080 (IDH1^R132C); test: Cellular 2-HG production assay, HT-1080; format: cell-based; details: Homo sapiens, HT-1080, 72 h, inhibition of 2HG production, 72 hr incubation, LC-MS/MS; read-out: HT1080 2-HG IC50
How it was run: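 Cells in E-MEM/10% FCS (G418 500 μg/mL for the transfected U87-MG line) at 500 per well got compound 24 h after seeding and were incubated 72 h at 37 °C. Medium 2-HG was measured by LC-MS/MS with 2-HG-d3 internal standard; IC50 came from sigmoidal fitting versus controls.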

T1 sequence (O75874 whole entry R132H): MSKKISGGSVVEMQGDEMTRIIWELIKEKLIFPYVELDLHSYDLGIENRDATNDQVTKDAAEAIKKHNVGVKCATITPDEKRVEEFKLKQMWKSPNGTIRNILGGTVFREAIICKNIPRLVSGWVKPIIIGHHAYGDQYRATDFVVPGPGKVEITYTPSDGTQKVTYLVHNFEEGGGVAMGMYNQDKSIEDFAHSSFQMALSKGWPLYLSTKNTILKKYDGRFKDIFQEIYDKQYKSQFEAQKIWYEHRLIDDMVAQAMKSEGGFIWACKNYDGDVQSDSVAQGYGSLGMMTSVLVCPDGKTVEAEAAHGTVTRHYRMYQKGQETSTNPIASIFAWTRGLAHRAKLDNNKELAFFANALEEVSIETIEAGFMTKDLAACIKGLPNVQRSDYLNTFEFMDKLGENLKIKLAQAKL
T2 sequence (O75874 whole entry R132C): as the sequence (O75874 whole entry R132H) above, with H132C counted along it
T4 sequence (O75874 whole entry): as the sequence (O75874 whole entry R132H) above, with H132R counted along it

| SMILES | IC50 [1] | IC50 [2] | IC50 [3] | IC50 [4] | IC50 [5] |
| --- | --- | --- | --- | --- | --- |
| C=CC(=O)N1CC=C(c2ccc([C@H](C)Nc3ncc4ccc(=O)n([C@@H](C)C(C)C)c4n3)cc2)CC1 [cpd 168, 2-({(1S)-1-[4-(1-acryloyl-1,2,3,6-tetrahydropyridin-4-yl)phenyl]ethyl}amino)-8-[(2S)-3-methylbutan-2-yl]pyrido [2,3-d]pyrimidin-7(8H)-one] | 29 nM | 16 nM | 137 nM | 758 nM | – |
| C=CC(=O)N1CCN([C@@H](CC)c2ccc(C3(Nc4ncc5ccc(=O)n(C(C)C)c5n4)CC3)cc2)CC1 (single isomer, unassigned) [cpd 249] | 5 nM | 3 nM | 33 nM | 215 nM | 2.9 nM |
| C=CC(=O)N1CCN(Cc2ccc([C@H](C)Nc3ncc4ccc(=O)n(C(C)C)c4n3)cc2F)CC1 [cpd 183, 2-{[(1S)-1-{4-[(4-acryloylpiperazin-1-yl)methyl]-3-fluorophenyl}ethyl]amino}-8-(propan-2-yl)pyrido[2,3-d]pyrimidin-7(8H)-one] | 52 nM | 39 nM | – | 899 nM | 21 nM |
| C=C(C)C(=O)N1CCN(Cc2ccc([C@H](C)Nc3ncc4ccc(=O)n(CC(C)(C)C)c4n3)cc2)CC1 [cpd 144, 8-(2,2-dimethylpropyl)-2-{[(1S)-1-(4-{[4-(2-methylacryloyl)piperazin-1-yl]methyl}phenyl)ethyl]amino} pyrido [2,3-d]pyrimidin-7(8H)-one] | 78 nM | 25 nM | – | 6800 nM | – |
| C=CC(=O)N1CCN(Cc2ccc([C@H](C)Nc3ncc4ccc(=O)n([C@@H](C)C(C)C)c4n3)cc2)CC1 [cpd 161, 2-{(S)-1-[4-(4-Acryloyl-piperazin-1-ylmethyl)-phenyl]-ethylamino}-8-((S)-1,2-dimethyl-propyl)-8H-pyrido[2,3-d]pyrimidin-7-one] | 22 nM | 13 nM | 299 nM | 908 nM | – |
| C=CC(=O)N1CCN(Cc2ccc([C@H](C)Nc3ncc4ccc(=O)n([C@@H](C)C(F)(F)F)c4n3)cc2)CC1 [cpd 169, 2-{[(1S)-1-{4-[(4-acryloylpiperazin-1-yl)methyl]phenyl}ethyl]amino}-8-[(2S)-1,1,1-trifluoropropan-2-yl]pyrido [2,3-d]pyrimidin-7(8H)-one] | 193 nM | 179 nM | 414 nM | 2850 nM | – |

Continued by falling IC50 [1], values first:

| IC50 [1] | IC50 [2] | IC50 [3] | IC50 [4] | IC50 [5] | SMILES |
| --- | --- | --- | --- | --- | --- |
| 392 nM | 811 nM | 431 nM | 5460 nM | – | C=CC(=O)N1CCN(Cc2ccc([C@H](C)Nc3ncc4ccc(=O)n(CC)c4n3)cc2)CC1 [cpd 186, 2-{[(1S)-1-{4-[(4-acryloylpiperazin-1-yl)methyl]phenyl}ethyl]amino}-8-ethylpyrido[2,3-d]pyrimidin-7(8H)-one] |
| 175 nM | 351 nM | 878 nM | 2140 nM | – | C=CC(=O)N1CCN(c2ccc([C@H](C)Nc3ncc4ccc(=O)n([C@@H](C)C(C)C)c4n3)cn2)CC1 [cpd 181, 2-({(1S)-1-[6-(4-acryloylpiperazin-1-yl)pyridin-3-yl]ethyl}amino)-8-[(2S)-3-methylbutan-2-yl]pyrido[2,3-d]pyrimidin-7(8H)-one] |
| 84 nM | 30 nM | – | 3900 nM | – | C=C(C)C(=O)N1CCN(Cc2ccc([C@H](C)Nc3ncc4ccc(=O)n([C@@H](C)C(C)C)c4n3)cc2)CC1 [cpd 162, 8-((S)-1,2-Dimethyl-propyl)-2-((S)-1-{4-[4-(2-methyl-acryloyl)-piperazin-1-ylmethyl]-phenyl}-ethylamino)-8H-pyrido[2,3-d]pyrimidin-7-one] |
| 5 nM | 4 nM | 35 nM | 215 nM | 3 nM | C=CC(=O)N1CCN(C(CC)c2ccc(C3(Nc4ncc5ccc(=O)n(C(C)C)c5n4)CC3)cc2)CC1 (stereo not shown) [cpd 247, 2-[(1-{4-[1-(4-acryloylpiperazin-1-yl)propyl]phenyl}cyclopropyl)amino]-8-(propan-2-yl)pyrido[2,3-d]pyrimidin-7(8H)-one] |

— patent US12018023B2 (NERVIANO MEDICAL SCIENCES S.R.L., priority 2018, dated 2024)
